Drawing on BindingDB's records for doi:10.1016/j.bmcl.2004.04.065 (Eli Lilly, 2004), this text covers IC50 for six compounds.

In the test the target is TGF-beta receptor type-1. The test can be described thus: Inhibitory activity against TGF-beta type I receptor.

Regarding `c1ccc(-c2nn3c(c2-c2ccnc4ccccc24)CCC3)nc1` [4-(2-(pyridin-2-yl)-5,6-dihydro-4H-pyrrolo[1,2-b]pyrazol-3-yl)quinoline], the IC50 stood at 0.104 µM.

For `Fc1ccc(-c2nn3c(c2-c2ccnc4ccccc24)CCC3)nc1` [4-[2-(5-Fluoro-pyridin-2-yl)-5,6-dihydro-4H-pyrrolo[1,2-b]pyrazol-3-yl]-quinoline], half-maximal inhibition (IC50) was put at 0.151 µM.

`CCc1cccc(-c2nn3c(c2-c2ccnc4ccccc24)CCC3)n1` [4-[2-(6-Ethyl-pyridin-2-yl)-5,6-dihydro-4H-pyrrolo[1,2-b]pyrazol-3-yl]-quinoline] came in with an IC50 of 0.071 µM. Compared with the last compound, the IC50 is about 2.1-fold lower.

`CCS(=O)(=O)c1ccc2c(-c3c(-c4ccccn4)nn4c3CCC4)ccnc2c1` [7-Ethanesulfonyl-4-(2-pyridin-2-yl-5,6-dihydro-4H-pyrrolo[1,2-b]pyrazol-3-yl)-quinoline] returned an IC50 of 9.29 µM.

With `CCSc1ccc2c(-c3c(-c4ccccn4)nn4c3CCC4)ccnc2c1` [7-Ethylsulfanyl-4-(2-pyridin-2-yl-5,6-dihydro-4H-pyrrolo[1,2-b]pyrazol-3-yl)-quinoline], the IC50 is 0.11 µM.

`Cc1cccc(-c2nn3c(c2-c2ccnc4cc(Cl)ccc24)CCC3)n1` [7-chloro-4-(2-(6-methylpyridin-2-yl)-5,6-dihydro-4H-pyrrolo[1,2-b]pyrazol-3-yl)quinoline] showed a half-inhibitory concentration (IC50) of 0.048 µM. This IC50 is about 2.3-fold lower than that of the compound before.
